Here are results for 2 molecules from publication PMC5838563, “Compounds producing an effective combinatorial regimen for disruption of HIV‐1 latency” (EMBO Molecular Medicine, 2017).

In one test the test system is PKCδ/θ and IκBα/IκBε. Also noted: method as in Jiang et al, 2015. The following applies: 12 nM PEP005; ref Jiang et al, 2015; cited from earlier work.
Test [1] relates to HIV‐1 LTR (Jurkat^Tat LTR‐luciferase cell line). As to the kind of experiment: Jurkat^Tat LTR‐luciferase reporter assay for HIV‐1 latency reversal. It is filed as cell-based. The following applies: Human immunodeficiency virus 1; 24 h treatment, percent activation relative to PMA. The procedure:
Activity of compounds identified for latency‐reversing activity in the primary screens was further validated by examining the effect of a single concentration (7 μM) on an alternative reporter cell line, bearing an integrated HIV‐1 reporter virus where luciferase expression is produced from the 5′ LTR, in cells constitutively expressing the viral TAT protein (Fig 2A), referred to as Jurkat^Tat LTR‐luciferase. Importantly, this cell line has the HIV‐1 reporter virus integrated at a different chromosomal location than that of the A1 J‐Lat cell line and also enables validation of provirus reactivation with a second enzymatic luciferase assay. In these assays, after 24‐h treatment we observed 10 compounds that produced significant induction of luciferase activity, including two compounds from the KD2 library, three from the CCBN library and five compounds from the DIVERSet. Compounds that produced significant effects in these secondary assays were re‐ordered from their respective suppliers and examined in more detail using the HIV‐luciferase reporter cell line. […] These five compounds represent diverse chemical structures (Fig 2G).
Figure 2 Concentration–response analysis for five selected PH compounds • A Schematic representation of the pTY‐LAI‐luciferase reporter virus used in secondary screening assays, where luciferase expression is under the control of the 5′ LTR, in cloned lines derived from Jurkat^TAT cells bearing single‐copy integrants. • B–F Luciferase activity was measured from reporter cells treated for 24 h with the indicated compound concentrations. Results are presented as percent activation relative to PMA‐treated controls. The EC50 for each compound is indicated. Mean and standard error (SE) for the results are determined from three biological replicates (n = 3) and technical duplicates. • G Illustration of chemical structures of the PH compounds.
Luciferase assays were performed in 96‐well plate format, where 100 μl of cell culture containing 1 × 10^5 luciferase reporter cells was plated per well. After the indicated time of treatment, 100 μl of luciferase assay reagent (SuperlightTM luciferase reporter Gene Assay Kit; BioAssay Systems) was added per well, and incubated for 2 min at RT, when luciferase activity was measured on a VictorTM X3 Multilabel Plate Reader. Results were presented relative to the positive control samples treated with 50 nM PMA. T‐cell activation was measured using 1 × 10^5 wild‐type Jurkat^Tat cells or PBMCs purified from healthy donors, treated as indicated. After 24 h, cells were incubated with 2.4G2 antibody to block nonspecific binding and further stained with 5 μl of anti‐human CD69 or an IgG1 isotype control antibody conjugated with PE‐Cy^Tm7. After 30‐min incubation on ice, the cells were washed twice with PBS and analyzed using a Becton Dickinson LSRII flow cytometer (BD Biosciences) to determine mean fluorescence intensity (MFI), using FlowJo software. The mean fluorescence intensity (MFI) obtained from cells stained with IgG isotype antibody control was subtracted from that from cells stained with CD69 to compensate for background (MFICD69‐MFIIgG). IL‐2 production was measured in cell culture supernatants using a human IL‐2 ELISA System (eBioscience). Jurkat^Tat clones bearing integrations of the mini‐dual HIV reporter virus, clone #11 and #131, were plated at 1 × 10^5 per well in a 96‐well plate format, treated for the indicated time, washed with 1 ml PBS, and then transferred into flow cytometry tubes, where they were fixed with freshly made 1% formaldehyde for 10 min at RT prior to analysis by flow cytometry. Results are presented as ΔMFI, where MFI obtained from parental Jurkat^Tat cells undergoing the same treated was subtracted from the MFI corresponding to each cell line; ΔMFI = (MFI compound‐treated cell line 131/11 − MFI compound‐treated WT Jurkat^Tat cells).

For the molecule `C/C=C(/C)C(=O)O[C@H]1C(C)=C[C@]23C(=O)[C@@H](C=C(CO)[C@@H](O)[C@]12O)[C@H]1[C@@H](C[C@H]3C)C1(C)C` [PEP005, ingenol‐3‐angelate, reference compound], in the test on PKCδ/θ and IκBα/IκBε, the “time post‐treatment at which phosphorylation is induced” value was 0.5 to 2 h.

With `CC(=O)Oc1ccccc1N(C=C1Sc2ccccc2C1=O)C(C)=O` [PH02, 2‐{acetyl[(3‐oxo‐1‐benzothien‐2(3H)‐ylidene)methyl]amino}phenyl acetate], the 50% effective concentration (EC50) (usually the concentration at which the effect is half-maximal) in test [1] turned out to be 787 nM.
